Target: T1, P2X7 receptor (IL-1β release from THP-1 cells) (Homo sapiens, UniProt Q99572)
T1 construct: host or cells: THP-1 cells differentiated with LPS and IFN-γ
T1 sequence (Q99572 1-595): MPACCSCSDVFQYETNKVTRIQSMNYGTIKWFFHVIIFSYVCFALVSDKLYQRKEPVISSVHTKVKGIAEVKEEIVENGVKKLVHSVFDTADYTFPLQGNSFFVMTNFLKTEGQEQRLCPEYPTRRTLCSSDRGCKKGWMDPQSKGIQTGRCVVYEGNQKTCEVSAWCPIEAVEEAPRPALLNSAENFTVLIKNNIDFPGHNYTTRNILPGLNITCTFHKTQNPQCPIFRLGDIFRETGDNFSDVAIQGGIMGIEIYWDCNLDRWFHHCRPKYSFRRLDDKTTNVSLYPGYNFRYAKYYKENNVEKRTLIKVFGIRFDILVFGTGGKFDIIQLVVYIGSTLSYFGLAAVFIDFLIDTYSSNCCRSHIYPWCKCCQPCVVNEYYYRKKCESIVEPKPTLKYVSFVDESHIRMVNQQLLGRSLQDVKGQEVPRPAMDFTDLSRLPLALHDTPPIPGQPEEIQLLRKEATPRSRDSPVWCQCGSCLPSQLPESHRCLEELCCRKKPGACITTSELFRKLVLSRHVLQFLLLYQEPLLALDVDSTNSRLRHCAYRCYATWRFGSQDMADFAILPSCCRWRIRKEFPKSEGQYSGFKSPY
Experiment: IL-1β release assay in differentiated THP-1 cells stimulated with BzATP (Example 9)
Format: cell-based
Details: for inhibition at 0.1 µM: 0.1 μM concentration; for inhibition at 0.1 µM / inhibition at 0.3 µM: read-out: IL-1β % Inhib. @ 0.3 or 0.1 μM; for IC50: released IL-1β as in Example 9, four parameter logistic fit
Experimental: The cells are then pretreated for 30 minutes with the compound of interest at the appropriate concentration in RPMI media containing 100 IU/mL penicillin, 100 ug/mL streptomycin. […] 30 uL of cell supernatant is then collected and IL-1β levels determined via ELISA (R&D systems Cat. #HSLB50) according to manufacturer's recommendations using the Tecan Safire plate reader. Background adjusted IL-1β levels of drug treated and non-treated cells are used to calculate the percent inhibition.
The compounds set forth in Table 1 were tested for activity in a cellular model as described herein. […] Measurements were made and IC50 values, presented in Table 2, below, were determined by fitting the data to a four parameter logistic equation using GraphPad Prism software (GraphPad Software, Inc). The equation may be expressed by the following formula:
Y=Bottom+(Top−Bottom)/(1+10̂((Log EC50−X)*HillSlope))
Where X is the logarithm of concentration, Y is the response and Y starts at Bottom and goes to Top with a sigmoid shape.

[1] = 0.3 μM concentration, BzATP 250 uM

## NC(=O)[C@H](Cc1ccccc1)n1ccc2c(NC(=O)CC34CC5CC(CC(C5)C3)C4)cccc2c1=O [Compound 502]
BzATP 250 uM
  inhibition at 0.1 µM: 51 to 75%

## CC1CNC(CN2CCc3c(NC(=O)CC45CC6CC(CC(C6)C4)C5)cccc3C2=O)CN1 (stereo not drawn) [Compound 503]
BzATP 250 uM
  inhibition at 0.1 µM: > 76%

## O=C(CC12CC3CC(CC(C3)C1)C2)Nc1cccc2c(=O)n(CC3CCCN3)ccc12 (stereo not drawn) [Compound 504]
[1]
  inhibition at 0.3 µM: > 76%
  IC50: 1.56 nM

## O=C(CC12CC3CC(CC(C3)C1)C2)Nc1cccc2c(=O)n(C[C@@H]3CCCN3)ccc12 [Compound 505]
[1]
  inhibition at 0.3 µM: > 76%
  IC50: 0.65 nM

## O=C(CC12CC3CC(CC(C3)C1)C2)Nc1cccc2c(=O)n(C[C@H]3CCCN3)ccc12 [Compound 506]
[1]
  inhibition at 0.3 µM: > 76%
  IC50: 1 nM

## NC(=O)Cn1ccc2c(NC(=O)CC34CC5CC(CC(C5)C3)C4)cccc2c1=O [Compound 509]
[1]
  inhibition at 0.3 µM: > 76%
  IC50: 0.271 nM

## NC(=O)CCn1ccc2c(NC(=O)CC34CC5CC(CC(C5)C3)C4)cccc2c1=O [Compound 510]
[1]
  inhibition at 0.3 µM: > 76%
  IC50: 1.04 nM

## NC(=O)[C@@H](CC1CCCCC1)n1ccc2c(NC(=O)CC34CC5CC(CC(C5)C3)C4)cccc2c1=O [Compound 513]
[1]
  inhibition at 0.3 µM: > 76%
  IC50: 33.7 nM

## NC(=O)C(Cc1c[nH]cn1)n1ccc2c(NC(=O)CC34CC5CC(CC(C5)C3)C4)cccc2c1=O (stereo not drawn) [Compound 514]
[1]
  inhibition at 0.3 µM: > 76%
  IC50: 1.36 nM

## CC(C)C(CO)n1ccc2c(NC(=O)CC34CC5CC(CC(C5)C3)C4)cccc2c1=O (stereo not drawn) [Compound 516, 2-Adamantan-1-yl-N-[2-(1-hydroxymethyl-2-methyl-propyl)-1-oxo-1,2-dihydro-isoquinolin-5-yl]-acetamide]
[1]
  inhibition at 0.3 µM: > 76%
  IC50: 0.049 nM

## C[C@@H](CO)n1ccc2c(NC(=O)CC34CC5CC(CC(C5)C3)C4)cccc2c1=O [Compound 521]
[1]
  inhibition at 0.3 µM: > 76%
  IC50: 0.315 nM

## CC12CC3CC(C)(C1)CC(CC(=O)Nc1cccc4c(=O)n(CC(N)=O)ccc14)(C3)C2 [Compound 523]
[1]
  inhibition at 0.3 µM: > 76%
  IC50: 1.5 nM

## C[C@@H](CO)n1ccc2c(NC(=O)CC34CC5CC(C)(CC(C)(C5)C3)C4)cccc2c1=O [Compound 524]
[1]
  inhibition at 0.3 µM: > 76%
  IC50: 0.204 nM

## C[C@H](CO)n1ccc2c(NC(=O)CC34CC5CC(C)(CC(C)(C5)C3)C4)cccc2c1=O [Compound 525]
[1]
  inhibition at 0.3 µM: > 76%
  IC50: 3.23 nM

## C[C@@H](CO)N1CCc2c(NC(=O)CC34CC5CC(CC(C5)C3)C4)cccc2C1=O [Compound 527]
[1]
  inhibition at 0.3 µM: > 76%
  IC50: 0.149 nM

## CC(C)[C@H](C(N)=O)n1ccc2c(NC(=O)CC34CC5CC(CC(C5)C3)C4)cccc2c1=O [Compound 528]
[1]
  inhibition at 0.3 µM: > 76%
  IC50: 0.181 nM

## CC(C(N)=O)n1ccc2c(NC(=O)CC34CC5CC(C)(CC(C)(C5)C3)C4)cccc2c1=O (stereo not drawn) [Compound 531]
[1]
  inhibition at 0.3 µM: > 76%
  IC50: 4.13 nM

## CC(C)(C)OC(=O)N1CCC(CC(=O)Nc2cccc3c(=O)n(CCO)ccc23)CC1 [Compound 532]
[1]
  inhibition at 0.3 µM: 0 to 25%
  IC50: > 1000 nM

## NC(=O)CN1CCc2c(NC(=O)CC34CC5CC(CC(C5)C3)C4)cccc2C1=O [Compound 533]
[1]
  inhibition at 0.3 µM: > 76%
  IC50: 4.79 nM

## C[C@H](CO)N1CCc2c(NC(=O)CC34CC5CC(C)(CC(C)(C5)C3)C4)cccc2C1=O [Compound 534]
[1]
  inhibition at 0.3 µM: > 76%
  IC50: 11.5 nM

## C[C@@H](CO)N1CCc2c(NC(=O)CC34CC5CC(C)(CC(C)(C5)C3)C4)cccc2C1=O [Compound 535]
[1]
  inhibition at 0.3 µM: > 76%
  IC50: 0.341 nM

## CC(C)[C@H](C(N)=O)n1ccc2c(NC(=O)CC34CC5CC(CC(C5)C3)C4)cccc2c1=O [Compound 536]
[1]
  IL-1β % Inhib. @ 0.3 or 0.1 μM: ++++ (compound exhibited 76% or greater inhibition at 0.3 μM concentration)
  IC50: 0.202 nM

## CC(C)(C)OC(=O)N1CCC(C(=O)Nc2cccc3c(=O)n(CCO)ccc23)CC1 [Compound 537]
[1]
  inhibition at 0.3 µM: 0 to 25%
  IC50: > 1000 nM

## CC(C)C(CO)n1ccc2c(NC(=O)CC3CCCCCC3)cccc2c1=O (stereo not drawn) [Compound 538]
[1]
  inhibition at 0.3 µM: > 76%
  IC50: 1.86 nM

## C[C@H]1CC[C@H](C(=O)Nc2cccc3c(=O)n(CC4(O)CCCCC4)ccc23)CC1 [Compound 539]
BzATP 250 uM
  inhibition at 0.1 µM: 0 to 25%

## O=C(CC1CCCCC1)Nc1cccc2c(=O)n(CCO)ccc12 [Compound 545]
[1]
  inhibition at 0.3 µM: 0 to 25%
  IC50: 906 nM

## CC1(C)CC(C)(C)CC(O)(CC(=O)Nc2cccc3c(=O)n(CCO)ccc23)C1 [Compound 546]
[1]
  inhibition at 0.3 µM: > 76%
  IC50: 135 nM

## CC1(C)CCCC(O)(CC(=O)Nc2cccc3c(=O)n(CCO)ccc23)C1 (stereo not drawn) [Compound 547]
[1]
  inhibition at 0.3 µM: 51 to 75%
  IC50: 287 nM

## O=C(CC12CC3CC(CC(C3)C1)C2)Nc1cccc2c1CCN(CCO)C2=O [Compound 549, 2-Adamantan-1-yl-N-[2-(2-hydroxy-ethyl)-1-oxo-1,2,3,4-tetrahydro-isoquinolin-5-yl]-acetamide]
[1]
  inhibition at 0.3 µM: > 76%
  IC50: 1.37 nM

## O=C(CC1CCCCC1)Nc1cccc2c(=O)n(C(CO)CO)ccc12 [Compound 550]
[1]
  inhibition at 0.3 µM: 51 to 75%
  IC50: 266 nM

## NC(=O)C(CO)n1ccc2c(NC(=O)CC3CCCCCC3)cccc2c1=O (stereo not drawn) [Compound 551, 2-[5-(2-Cycloheptyl-acetylamino)-1-oxo-1H-isoquinolin-2-yl]-3-hydroxy-propionamide]
[1]
  inhibition at 0.3 µM: > 76%
  IC50: 32.7 nM

## O=C(CC1(O)CCCCCC1)Nc1cccc2c(=O)n(C(CO)CO)ccc12 [Compound 552]
[1]
  inhibition at 0.3 µM: 0 to 25%
  IC50: 760 nM

## CC1(C)CCCC(O)(CC(=O)Nc2cccc3c(=O)n(C(CO)CO)ccc23)C1 (stereo not drawn) [Compound 553]
[1]
  inhibition at 0.3 µM: 51 to 75%
  IC50: 203 nM

## C[C@@H](C(N)=O)n1ccc2c(NC(=O)CC3CCCCCC3)cccc2c1=O [Compound 554]
[1]
  inhibition at 0.3 µM: > 76%
  IC50: 12.3 nM

## C[C@@H](C(N)=O)n1ccc2c(NC(=O)CC3(O)CC(C)(C)CC(C)(C)C3)cccc2c1=O [Compound 556]
[1]
  inhibition at 0.3 µM: 51 to 75%
  IC50: 257 nM

## C[C@@H](C(N)=O)n1ccc2c(NC(=O)CC3(O)CCCCCC3)cccc2c1=O [Compound 557]
[1]
  inhibition at 0.3 µM: 26 to 50%
  IC50: 355 nM

## O=C(CC1CCCCCC1)Nc1cccc2c(=O)n(C(CO)CO)ccc12 [Compound 560, 2-Cycloheptyl-N-[2-(2-hydroxy-1-hydroxymethyl-ethyl)-1-oxo-1,2-dihydro-isoquinolin-5-yl]-acetamide]
[1]
  inhibition at 0.3 µM: > 76%
  IC50: 75.6 nM

## NC(=O)Cn1ccc2c(NC(=O)CC3CCCCCC3)cccc2c1=O [Compound 561, 2-(5-(2-Cycloheptyl-acetylamino)-1-oxo-1H-isoquinolin-2-yl)-acetamide]
[1]
  inhibition at 0.3 µM: > 76%
  IC50: 38.2 nM

## NC(=O)Cn1ccc2c(NC(=O)CC3(O)CCCCCC3)cccc2c1=O [Compound 562]
[1]
  inhibition at 0.3 µM: 26 to 50%
  IC50: 427 nM

## CC(O)Cn1ccc2c(NC(=O)[C@H]3CC[C@H](C)CC3)cccc2c1=O (stereo partly drawn) [Compound 563]
BzATP 250 uM
  inhibition at 0.1 µM: 0 to 25%

## CC(O)Cn1ccc2c(NC(=O)CC3C[C@@H]4CC[C@H]3C4)cccc2c1=O (stereo partly drawn) [Compound 564]
BzATP 250 uM
  inhibition at 0.1 µM: 51 to 75%

## CC(O)Cn1ccc2c(NC(=O)C34C[C@@H]5C[C@@H](C[C@@H]3C5)C4)cccc2c1=O (stereo partly drawn) [Compound 566]
BzATP 250 uM
  inhibition at 0.1 µM: 0 to 25%
